The species entered for this experiment is Homo sapiens. Description: Concentration required for the inhibition of collagen induced platelet aggregation; inactive. The experiment is classed as functional.

Usually IC50 stands for the concentration at which inhibition is half-maximal. A high value points to weaker potency. `O=C(O)COc1ccc2c(c1)CC[C@@H]1[C@@H](C#C[C@@H](O)C3CCCCC3)[C@H](O)C[C@H]21` yielded an IC50 above 10 µM.

The record behind these values is ChEMBL document CHEMBL1125946, “Total synthesis of a homochiral arene-fused prostacyclin analog” (Bioorg Med Chem Lett, 1991).
